Assay [1] has as its system HL-60. In words: Induction of apoptosis in human HL60 cells assessed as accumulation at subG0/G1 phase at 50 uM after 24 hrs by Annexin V and propidium iodide staining based flow cytometric analysis (reference value: 3.14 +/- 0.9 %). The assay is classed as functional. On the technique in general: Flow cytometry measures light scatter and fluorescence of single cells or particles in a stream.

The test system of the next assay is MCF7. In words: Induction of apoptosis in human MCF7 cells assessed as accumulation at subG0/G1 phase at 50 uM after 48 hrs by Annexin V and propidium iodide staining based flow cytometric analysis (reference value: 8.5 +/- 2.4 %). It counts as functional.
The subject of assay [2] is HL-60. The assay can be described thus: Induction of apoptosis in human HL60 cells assessed as accumulation at subG0/G1 phase at 100 uM after 24 hrs by Annexin V and propidium iodide staining based flow cytometric analysis (reference value: 3.14 +/- 0.9 %). The assay is classed as functional.
Assay [3] is described as follows: Induction of apoptosis in human EBV-B cells assessed as accumulation at subG0/G1 phase at 25 uM after 24 hrs by Annexin V and propidium iodide staining based flow cytometric analysis (reference value: 1.6 %). The assay is classed as functional.
In another assay the test system is Jurkat. The assay can be described thus: Induction of apoptosis in human Jurkat cells assessed as accumulation at subG0/G1 phase at 25 uM after 24 hrs by Annexin V and propidium iodide staining based flow cytometric analysis (reference value: 3.9 %). It counts as functional.
In assay [4] the test system is HL-60. In words: Induction of apoptosis in human HL60 cells assessed as accumulation at subG0/G1 phase at 25 uM after 24 hrs by Annexin V and propidium iodide staining based flow cytometric analysis (reference value: 5 %). It counts as functional.
The next assay concerns B16-F1. In words: Induction of apoptosis in mouse B16-F1 cells assessed as accumulation at subG0/G1 phase at 50 uM after 24 hrs Annexin V and propidium iodide staining based flow cytometric analysis (reference value: 1.9 +/- 1.6 %). It counts as functional.
The subject of another assay is B16-F10. The assay can be described thus: Induction of apoptosis in mouse B16F10 cells assessed as accumulation at subG0/G1 phase at 50 uM after 24 hrs by Annexin V and propidium iodide staining based flow cytometric analysis (reference value: 3.7 +/- 3 %). The assay is classed as functional.
The species entered for assay [5] is Homo sapiens. In words: Induction of apoptosis in human 501mel cells assessed as accumulation at subG0/G1 phase at 100 uM after 72 hrs by Annexin V and propidium iodide staining based flow cytometric analysis. It counts as functional, cell-based.
For assay [6], the system named is A-375. The assay can be described thus: Induction of apoptosis in human A375 cells assessed as accumulation at subG0/G1 phase at 100 uM after 72 hrs by Annexin V and propidium iodide staining based flow cytometric analysis. The assay is classed as functional, cell-based.
For assay [7], the system named is A-375. The assay can be described thus: Induction of apoptosis in human A375 cells assessed as accumulation at subG0/G1 phase at 50 uM after 24 hrs by Annexin V and propidium iodide staining based flow cytometric analysis (reference value: 7 +/- 1 %). It counts as functional, cell-based.
For assay [8], the species on record is Homo sapiens. In words: Induction of apoptosis in human 501mel cells assessed as accumulation at subG0/G1 phase at 50 uM after 24 hrs by Annexin V and propidium iodide staining based flow cytometric analysis (reference value: 9 +/- 1.8 %). The assay is classed as functional, cell-based.
The test system of assay [9] is HL-60. In words: Induction of apoptosis in human HL60 cells assessed as accumulation at subG0/G1 phase after 24 hrs by Annexin V and propidium iodide staining based flow cytometric analysis. The assay is classed as functional, cell-based.
The subject of assay [10] is HL-60. In words: Induction of apoptosis in human HL60 cells assessed as reduction in accumulation at G0/G1 phase after 24 hrs by propidium iodide staining based flow cytometric analysis. It counts as functional, cell-based.
The test system of assay [11] is HL-60. In words: Induction of apoptosis in human HL60 cells assessed as reduction in accumulation at G2/M phase after 24 hrs by propidium iodide staining based flow cytometric analysis. It counts as functional, cell-based.
In assay [12] the test system is HL-60. The assay can be described thus: Induction of apoptosis in human HL60 cells assessed as loss of mitochondrial inner transmembrane potential at 50 uM after 24 hrs by TMRM dye based flow cytometric analysis. The assay is classed as functional, cell-based.
Another assay deals with RBL-2H3. In words: Induction of tubulin polymerization in rat RBL2H3 cells assessed as induction of alteration of microtubule network at 50 uM preincubated for 16 hrs measured after 24 hrs by confocal laser scanning microscopic analysis. It counts as cell-based.
The target in assay [13] is T1, Tubulin (Sus scrofa) (UniProt P02554+P02550). The assay can be described thus: Induction of pig tubulin polymerization at 10 uM after 60 mins by spectroscopic analysis. It counts as protein assay.
T1 sequence (P02550 whole entry, looked up): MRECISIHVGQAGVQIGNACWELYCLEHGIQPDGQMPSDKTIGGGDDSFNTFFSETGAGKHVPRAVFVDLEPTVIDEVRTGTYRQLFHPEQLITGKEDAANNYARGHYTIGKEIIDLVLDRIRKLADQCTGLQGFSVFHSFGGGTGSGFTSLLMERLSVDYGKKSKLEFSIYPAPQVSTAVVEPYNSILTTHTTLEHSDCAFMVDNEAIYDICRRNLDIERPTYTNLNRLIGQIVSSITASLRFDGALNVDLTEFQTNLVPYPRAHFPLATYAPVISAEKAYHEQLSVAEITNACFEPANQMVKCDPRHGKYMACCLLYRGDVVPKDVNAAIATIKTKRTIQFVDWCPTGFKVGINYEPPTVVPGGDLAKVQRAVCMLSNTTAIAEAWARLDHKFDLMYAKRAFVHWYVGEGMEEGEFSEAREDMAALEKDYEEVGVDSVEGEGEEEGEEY
T1 sequence (P02554 whole entry, looked up): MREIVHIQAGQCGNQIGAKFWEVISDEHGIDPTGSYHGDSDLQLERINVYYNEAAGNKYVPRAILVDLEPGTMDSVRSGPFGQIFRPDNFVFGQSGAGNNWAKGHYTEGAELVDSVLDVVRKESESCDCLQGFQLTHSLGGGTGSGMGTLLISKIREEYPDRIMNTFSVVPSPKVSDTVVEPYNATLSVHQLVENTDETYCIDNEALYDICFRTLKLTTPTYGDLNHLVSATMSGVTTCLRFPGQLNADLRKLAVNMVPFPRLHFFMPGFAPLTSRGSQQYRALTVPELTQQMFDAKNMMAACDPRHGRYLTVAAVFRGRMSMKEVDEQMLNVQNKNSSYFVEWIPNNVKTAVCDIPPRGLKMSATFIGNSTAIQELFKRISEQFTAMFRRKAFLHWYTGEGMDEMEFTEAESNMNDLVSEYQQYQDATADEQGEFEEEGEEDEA
The target in assay [14] is T1, Tubulin (Sus scrofa). The assay can be described thus: Induction of pig tubulin polymerization at 100 uM after 60 mins by spectroscopic analysis. The assay is classed as protein assay.
The test system of assay [15] is A-375. In words: Induction of apoptosis in human A375 cells assessed as accumulation at subG0/G1 phase at 50 uM after 72 hrs by Annexin V and propidium iodide staining based flow cytometric analysis (reference value: 7 +/- 1 %). The assay is classed as functional.
The nature of assay [16]: Induction of apoptosis in human 501mel cells assessed as accumulation at subG0/G1 phase at 50 uM after 72 hrs by Annexin V and propidium iodide staining based flow cytometric analysis (reference value: 9 +/- 1.8%). It counts as functional.

Calls of active or inactive are those of the source. No cut-off for these calls is given here. *1 amine or outer side, *2 acyl side, *3 side chain or, on linkers, in order; H or OH if unused. Where a SMILES comes first, the peptide text is derived from it. [ ]: non-standard residue; d: D form. The star is where a group is joined. NH(CH2)2O(CH2)2NH2 = NCCOCCN*; ΔPro = O=C(O)[C@@H]1C=CCN1; CO = O=C([*:1])[*:2]; Bn = c1ccc(C*)cc1; GABA = NCCCC(=O)O; βAla = NCCC(=O)O

On to `CC[C@H](C)[C@@H]1NC(=O)[C@@H]2CCCN2C(=O)[C@@H]2CCCN2C(=O)CCCNC(=O)[C@H](Cc2ccccc2)NC(=O)[C@H](Cc2ccc(O)cc2)NC(=O)[C@@H]2C=CCN2C(=O)[C@H](C(C)C)NC1=O` (cyclo(F[GABA]PPIV[ΔPro]Y)), for which the Activity in the assay on HL-60 [1] worked out at 7%.
On the same count and under the same terms, under `CC[C@H](C)[C@H](NC(=O)[C@@H]1CCCN1C(=O)[C@@H]1CCCN1C(=O)CCCN)C(=O)N[C@H](C(=O)N1CCC[C@H]1C(=O)N[C@@H](Cc1ccc(O)cc1)C(=O)N[C@@H](Cc1ccccc1)C(=O)O)C(C)C` (H-[GABA]PPIVPYF-OH) stands “inactive”.
Consider Ac-LVPPPPIVPYF-NH2, for which the outcome in the assay on MCF7, with HL-60 [1], in the assay with B16-F1, in the assay with B16-F10, in the assay filed under Homo sapiens [5] and in the assay on A-375 [6] was inactive. Also, the result with A-375 [7] and in the assay filed under Homo sapiens [8] was inactive. In addition, the Activity is listed as 6.5% in the assay with HL-60 [2], 2.3% in [3], 4% in the assay on Jurkat and 7.7% in the assay on HL-60 [4].
For Ac-PPIVPYF-OH, the result in the assay on HL-60 [1] was inactive.
Still for that read-out and setting: the same measure for `CC[C@H](C)[C@H](NC(=O)[C@@H]1CCCN1C(=O)[C@@H]1CCCN1C(=O)CCCN)C(=O)N[C@H](C(=O)N1CC=C[C@H]1C(=O)N[C@@H](Cc1ccc(O)cc1)C(=O)N[C@@H](Cc1ccccc1)C(=O)O)C(C)C` (H-[GABA]PPIV[ΔPro]YF-OH): “inactive”.
On to `CC[C@H](C)[C@@H]1NC(=O)[C@@H]2CCCN2C(=O)[C@@H]2CCCN2C(=O)CNC(=O)[C@H](Cc2ccccc2)NC(=O)[C@H](Cc2ccc(O)cc2)NC(=O)[C@@H]2CCCN2C(=O)[C@H](C(C)C)NC1=O` (cyclo(FGPPIVPY)), for which the Activity with MCF7 is 17.3%; with HL-60 [1], 42%; in the assay with HL-60 [9] it was “Dose-dependent effect”; in the assay with HL-60 [10], “Dose-dependent effect”; with HL-60 [11], “Dose-dependent effect”. Besides, the result in the assay with HL-60 [12] and in the assay with RBL-2H3 was Active.
Take `CC[C@H](C)[C@@H]1NC(=O)[C@@H]2CCCN2C(=O)[C@@H]2CCCN2C(=O)CCCNC(=O)[C@H](Cc2ccccc2)NC(=O)[C@H](Cc2ccc(O)cc2)NC(=O)CNC(=O)[C@H](C(C)C)NC1=O` (cyclo(F[GABA]PPIVGY)): the Activity in the assay with HL-60 [1] is reported as 11%.
With Ac-LVPPPPIVPYF-OH, in the assay on HL-60 [2], the Activity is on record as 7.2%. Also, the result with HL-60 [1] was inactive.
Take `CC(=O)O[C@H]1C(=O)[C@@]2(C)[C@H]([C@H](OC(=O)c3ccccc3)[C@]3(O)C[C@H](OC(=O)[C@H](O)[C@@H](NC(=O)c4ccccc4)c4ccccc4)C(C)=C1C3(C)C)[C@]1(OC(C)=O)CO[C@@H]1C[C@@H]2O`: the result at Tubulin (Sus scrofa) [13] was Active.
`CC[C@H](C)[C@@H]1NC(=O)[C@@H]2CCCN2C(=O)[C@@H]2CCCN2C(=O)CCNC(=O)[C@H](Cc2ccccc2)NC(=O)[C@H](Cc2ccc(O)cc2)NC(=O)[C@@H]2CCCN2C(=O)[C@H](C(C)C)NC1=O` (cyclo(F[βAla]PPIVPY)): the Activity was 18.9% with MCF7; 33.1% with HL-60 [1]; “Dose-dependent effect” in the assay with HL-60 [9]; “Dose-dependent effect” in the assay with HL-60 [10]; “Dose-dependent effect” in the assay with HL-60 [11]. Also, the result in the assay on HL-60 [12] and on Tubulin (Sus scrofa) [14] was Active.
As for `CC[C@H](C)[C@@H]1NC(=O)NCCOCCCNC(=O)[C@H](Cc2ccccc2)NC(=O)[C@H](Cc2ccc(OCc3ccccc3)cc2)NC(=O)[C@@H]2C=CCN2C(=O)[C@H](C(C)C)NC1=O`, the Activity is 77% in the assay with HL-60 [1], “Dose-dependent effect” with HL-60 [9], “Dose-dependent effect” with HL-60 [10] and “Dose-dependent effect” with HL-60 [11]. Also, the result in the assay on HL-60 [12] was Active.
Take `CC[C@H](C)[C@H](NC(=O)[C@@H]1CCCN1C(=O)[C@@H]1CCCN1C(C)=O)C(=O)N[C@H](C(=O)N1CCC[C@H]1C(=O)N[C@@H](Cc1ccc(O)cc1)C(=O)N[C@@H](Cc1ccccc1)C(=O)N(C)C)C(C)C` (Ac-PPIVPYF-NMe2): the result in the assay on HL-60 [1] was inactive.
Same read-out and setting: under `CC[C@H](C)[C@H](NC(=O)[C@@H]1CCCN1C(=O)[C@@H]1CCCN1C(=O)CCCN)C(=O)N[C@H](C(=O)NCC(=O)N[C@@H](Cc1ccc(O)cc1)C(=O)N[C@@H](Cc1ccccc1)C(=O)O)C(C)C` (H-[GABA]PPIVGYF-OH) stands “inactive”.
On the same count and under the same terms, the same measure for `CC[C@H](C)[C@H](NC(=O)NCCOCCN)C(=O)N[C@H](C(=O)N1CC=C[C@H]1C(=O)N[C@@H](Cc1ccc(OCc2ccccc2)cc1)C(=O)N[C@@H](Cc1ccccc1)C(=O)O)C(C)C` ({NH(CH2)2O(CH2)2NH2-CO}-IV[ΔPro]Y(Bn)F-OH): “inactive”.
As to `CC[C@H](C)[C@@H]1NC(=O)[C@@H]2CCCN2C(=O)[C@@H]2CCCN2C(=O)CCCNC(=O)[C@H](Cc2ccccc2)NC(=O)[C@H](Cc2ccc(O)cc2)NC(=O)[C@@H]2CCCN2C(=O)[C@H](C(C)C)NC1=O` (cyclo(F[GABA]PPIVPY)), the Activity in the assay on MCF7 was 11.8%; with HL-60 [1] it was 56.6%; in [3], 11.4%; with Jurkat, 12%; with HL-60 [4] it was 17%; in the assay with HL-60 [9], “Dose-dependent effect”. For the same compound, the Activity entry is “Dose-dependent effect” in the assay with HL-60 [10]; “Dose-dependent effect” in the assay with HL-60 [11]; 13.9% in the assay on B16-F1; 48% with A-375 [15]; 13.6% with B16-F10; 17% in assay [16]. Also, the result in the assay on HL-60 [12] and in the assay on RBL-2H3 was Active.
Turning to H-GPPIVPYF-OH, the outcome with HL-60 [1] was inactive.
On the same count and under the same terms, the same measure for `CC[C@H](C)[C@H](NC(=O)[C@@H]1CCCN1C(=O)[C@@H]1CCCN1C(=O)CCN)C(=O)N[C@H](C(=O)NCC(=O)N[C@@H](Cc1ccc(O)cc1)C(=O)N[C@@H](Cc1ccccc1)C(=O)O)C(C)C` (H-[βAla]PPIVGYF-OH): “inactive”; for `CC[C@H](C)[C@@H]1NC(=O)NCCOCCNC(=O)[C@H](Cc2ccccc2)NC(=O)[C@H](Cc2ccc(O)cc2)NC(=O)[C@@H]2C=CCN2C(=O)[C@H](C(C)C)NC1=O`: 5%; for Ac-VPPPPI-NH2: “inactive”.

For the origin of these results see ChEMBL document CHEMBL3808319, “Development of novel cyclic peptides as pro-apoptotic agents” (Eur J Med Chem, 2016).
